pEC50, pIC50: −log10 of the molar value. Like-named read-outs stand apart in the source and are kept apart here.
Assays:
BTK = biological target: T1, BTK (Homo sapiens, UniProt Q06187); assay: In vitro BTK kinase assay: BTK-POLYGAT-LS assay; assay type: biochemical; settings: ATP 10 uM, polyGAT 100 nM, BTK 0.25 nM, 30 minutes
T1 construct: purchased Upstate 14-552
Procedure: In vitro BTK kinase assay: BTK-POLYGAT-LS ASSAY. The purpose of the BTK in vitro assay was to determine compound potency against BTK through the measurement of IC50. Compound inhibition was measured after monitoring the amount of phosphorylation of a fluorescein-labeled polyGAT peptide (Invitrogen PV3611) in the presence of active BTK enzyme (Upstate 14-552), ATP, and inhibitor. The BTK kinase reaction was done in a black 96 well plate (costar 3694). For a typical assay, a 24 uL aliquot of an ATP/peptide master mix (final concentration; ATP 10 uM, polyGAT 100 nM) in kinase buffer (10 mM Tris-HCl pH 7.5, 10 mM MgCl2, 200 uM […], 5 mM DTT, 0.01% Triton X-100, and 0.2 mg/ml casein) was added to each well. Next, 1 uL of a 4-fold, 40× compound titration in 100% DMSO solvent was added, followed by adding 15 uL of BTK enzyme mix in 1× kinase buffer (with a final concentration of 0.25 nM). The assay was incubated for 30 minutes before being stopped with 28 uL of a 50 mM EDTA solution. Aliquots (5 uL) of the kinase reaction were transferred to a low volume white 384 well plate (Corning 3674), and 5 uL of a 2× detection buffer (Invitrogen PV3574, with 4 nM Tb—PY20 antibody, Invitrogen PV3552) was added. […] Time resolved fluorescence (TRF) on Molecular Devices M5 (332 nm excitation; 488 nm emission; 518 nm fluorescein emission) was measured.

[1] = tested on: PLCγ2 phosphorylation in Ramos cells; assay: BCR pathway activation: inhibition of phosphorylation of PLCγ2 in Ramos cells (electrochemiluminescence immunoassay); assay type: cell-based; settings: Homo sapiens, 2 hours compound, 10 μg/mL anti-IgM for 5 minutes, R^2=0.90
Procedure: Protocol: One day before treatment, Ramos cells were plated at a density of 3×10^5 cells per well in 200 μl, of complete medium in a 96-well tissue culture filter plates (Millipore, Billerica, Mass.). On the day of treatment, used medium was removed by filtration and the cells re-suspended in 200 μL serum free medium containing serial compound dilutions and DMSO to 0.1%, then incubated for 2 hours at 37° C. Cells were stimulated for 5 minutes with 10 μg/mL goat anti-human IgM at 37° C. […] After washing with TBST, MSD read buffer was added and the luminescence was measured in an MSD SECTOR Imager 6000. Maximum response was determined as the average luminescence in wells containing stimulated cells treated with anti-IgM and DMSO. Minimal response was determined as the average luminescence in wells containing unstimulated cells treated with DMSO alone. The maximal and minimal values were used to normalize luminescence in compound treatment wells. The normalized values were plotted against compound concentration on a log scale then analyzed using Prizm software (GraphPad Software, Inc.). […]

[2] = tested on: IL-6 expression by FcγR-activated primary human macrophages; assay: FcγR activation of primary human macrophages: IL-6 expression; assay type: cell-based; settings: Macrophage, human monocyte derived macrophages, plate-bound IgG
Source text: (§1) FcγR activation of primary human macrophages. Autoantibody and immune-complex mediated activation through FcγR can be modeled by activation of macrophages with immobilized IgG. Primary human macrophages derived from GM-CSF treated monocytes up-regulate activation markers such as CD80, CD86, MHC antigens and the FcγRIII receptor. Human monocyte derived macrophages can be activated by plate-bound purified human IgG. This stimulation crosslinks the FcγRIII receptor and induces the secretion of pro-inflammatory cytokines such as TNFα, IL-6, IL 1β and MCP-1.
(§2) Generally, macrophages were cultured in plates previously incubated with purified IgG then washed. […] Cell culture supernatants were analyzed by ELISA for the expression of TNFα and IL-6.
(§3) Protocol: Human monocytes were isolated from buffy coats of healthy donors and negatively selected by magnetic cell sorting (Monocyte Isolation Kit II, Miltenyi Biotec). Purified monocytes were cultured in standard media supplemented with low-IgG FBS and 100 ng/mL GM-CSF for 5-7 days to induce macrophage differentiation. […] Supernatants were collected after 4 hrs and 18 hrs and analyzed for TNFα and IL-6, respectively.

[3] = tested on: TNFα expression by FcγR-activated primary human macrophages; assay: FcγR activation of primary human macrophages: TNFα expression; assay type: cell-based; settings: Macrophage, human monocyte derived macrophages, plate-bound IgG
Source text: as §1, §2, §3

[4] = biological target: T2, hERG (human ether-à-go-go-related gene) potassium channel (Homo sapiens, UniProt Q12809); assay: FastPatch/QPatch hERG inhibition assay in HEK293 cells; assay type: cell-based; settings: HEK293 cells stably transfected with hERG cDNA, QPatch HT, IC50 estimated from hERG inhibition data
T2 construct: host or cells: HEK293
Source text: The in vitro effects of provided compounds was investigated on the hERG (human ether-à-go-go-related gene) potassium channel current (a surrogate for IKr, the rapidly activating, delayed rectifier cardiac potassium current) expressed in human embryonic kidney (HEK293) cells stably transfected with hERG cDNA. Cells were placed in HEPES-buffered physiological saline solution in a glass-lined 96-well plate and loaded with appropriate amounts of test and control solutions for a duration of a 3-minute exposure at each concentration. Test compound was diluted in 0.3% DMSO. An automated parallel patch clamp system, QPatch HT (Sophion Bioscience A/S, Denmark), was used to evaluate at various concentrations (e.g., 10 μM). The IC50 values were estimated based on the hERG inhibition data. The study was performed at ChanTest (14656 Neo Parkway, Cleveland, Ohio). The QPatch screen is further described by Janzen and Bernasconi (eds.), High Throughput Screening, Methods and Protocols, Second Edition, vol. 565, chapter 10, pg. 209-223, 2009.

[5] = tested on: collagen induced arthritis (CIA) in female Lewis rats; assay: Rat collagen-induced arthritis model; assay type: in vivo; settings: oral gavage BID, therapeutic administration, read-out: Ankle histiopathology ED50
Source text: The collagen induced arthritis (CIA) model in female Lewis rats requires primary T and B cell immune responses to type II collagen (CII) immunization for the development of a severe inflammatory disease (see Goldschmidt T J, Holmdahl R. Cell Immunol. 154(1):240-8, 1994; Helfgott, S. M., et al; Clin. Immunol. Immunopathol. 31:403, 1984; Holmdahl R. et al., J Autoimmun. 7(6):739-52, 1994; and Stuart, J. M., et al., J. Exp. Med. 155:1, 1982). Clinical disease onsets after a secondary CII challenge and the disease progresses over the following eight days.
Generally, female Lewis rats were immunized with bovine collagen type II in incomplete Freund's adjuvant. […] Clinical severity of arthritis was assessed by caliper measurements of ankles taken every day beginning on […].
Detailed protocol: Female Lewis rats were immunized subcutaneously with bovine collagen type II (1:1 emulsion of 2 mg/ml bovine CII in 0.01 N acetic acid: Incomplete Freund's Adjuvant) at three sites of back skin. […] Clinical severity of CIA was assessed by caliper measurements of ankles taken every day beginning on Day 9. […] Baseline ankle caliper measurements for established disease animals was assessed on day 1 of therapeutic dosing and animals were randomly assigned to treatment groups after confirmation of clinically disease onset (0.2751-0.2755 in). […]

Human CD19+ B cells = assay: Inhibition of BCR (anti-IgM)-induced human B cell proliferation; assay type: cell-based; settings: human CD19+ B cells from different donors, 10 μg/ml anti-IgM, 72 hours, CellTiter-Glo, read-out: IC50, anti-IgM-induced B cell cellular metabolism (proliferation)
Procedure: In this context, cellular metabolism directly correlates with cellular activation and proliferation, and can also reflect relative cell survival during proliferation. […] The results are shown graphically in FIG. 6.
Protocol: Human B cells were isolated from peripheral blood mononuclear cells or unpurified buffy coats using Ficoll-Hypaque gradients (Amersham) and negatively selected by magnetic cell sorting (Human B Cell Isolation Kit II, Miltenyi Biotec). Target cell purity was determined by flow cytometry by staining for markers of B cells, T cells and monocytes (CD19, CD3, CD14, respectively; BD Biosciences). Data was collected on a FACsCaliber flow cytometer and analyzed using FloJo software (BD Biosciences). […] Negatively selected human B cells were stimulated with 10 μg/mL anti-IgM F(ab′)2 (Jackson ImmunoResearch) in 96 well plates. […] B cells were stimulated for 72 hr at 37° C., 5% CO2. Proliferation was measured using the CellTiter-Glo reagent (Promega), as measured on a luminometer. Mean values were plotted against maximum proliferation and IC50 values were determine using GraphPad Prism v5 software.

T2 sequence (Q12809 whole entry): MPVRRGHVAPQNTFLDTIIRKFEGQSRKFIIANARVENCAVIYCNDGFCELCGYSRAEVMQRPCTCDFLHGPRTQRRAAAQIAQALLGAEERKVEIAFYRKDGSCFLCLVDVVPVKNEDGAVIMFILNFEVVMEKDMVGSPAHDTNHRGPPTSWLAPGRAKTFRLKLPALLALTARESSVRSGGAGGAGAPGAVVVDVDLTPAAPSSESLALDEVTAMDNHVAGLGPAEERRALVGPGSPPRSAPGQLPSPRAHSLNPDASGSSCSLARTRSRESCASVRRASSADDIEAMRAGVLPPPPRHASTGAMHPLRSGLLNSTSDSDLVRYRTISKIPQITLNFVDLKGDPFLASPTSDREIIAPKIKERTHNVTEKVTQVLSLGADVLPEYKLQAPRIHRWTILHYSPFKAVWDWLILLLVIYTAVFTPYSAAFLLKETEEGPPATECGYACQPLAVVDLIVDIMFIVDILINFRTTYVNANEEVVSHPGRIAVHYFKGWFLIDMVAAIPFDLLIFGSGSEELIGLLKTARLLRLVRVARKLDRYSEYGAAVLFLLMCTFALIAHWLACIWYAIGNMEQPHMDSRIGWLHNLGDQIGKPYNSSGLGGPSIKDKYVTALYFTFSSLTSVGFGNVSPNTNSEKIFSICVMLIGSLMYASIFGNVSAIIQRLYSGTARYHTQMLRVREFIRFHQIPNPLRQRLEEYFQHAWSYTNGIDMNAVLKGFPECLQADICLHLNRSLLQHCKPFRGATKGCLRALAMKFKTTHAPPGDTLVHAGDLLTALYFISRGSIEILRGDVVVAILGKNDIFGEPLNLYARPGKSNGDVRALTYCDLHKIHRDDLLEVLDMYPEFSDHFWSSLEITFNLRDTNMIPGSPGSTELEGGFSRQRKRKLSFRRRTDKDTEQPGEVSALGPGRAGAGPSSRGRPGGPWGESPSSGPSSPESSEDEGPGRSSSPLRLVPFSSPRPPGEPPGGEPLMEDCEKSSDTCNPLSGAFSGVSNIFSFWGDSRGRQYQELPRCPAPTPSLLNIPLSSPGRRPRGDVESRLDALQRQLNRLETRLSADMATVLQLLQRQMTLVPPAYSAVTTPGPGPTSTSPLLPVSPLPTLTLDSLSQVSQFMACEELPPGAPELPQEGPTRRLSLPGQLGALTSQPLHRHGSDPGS
T1 sequence (Q06187 whole entry): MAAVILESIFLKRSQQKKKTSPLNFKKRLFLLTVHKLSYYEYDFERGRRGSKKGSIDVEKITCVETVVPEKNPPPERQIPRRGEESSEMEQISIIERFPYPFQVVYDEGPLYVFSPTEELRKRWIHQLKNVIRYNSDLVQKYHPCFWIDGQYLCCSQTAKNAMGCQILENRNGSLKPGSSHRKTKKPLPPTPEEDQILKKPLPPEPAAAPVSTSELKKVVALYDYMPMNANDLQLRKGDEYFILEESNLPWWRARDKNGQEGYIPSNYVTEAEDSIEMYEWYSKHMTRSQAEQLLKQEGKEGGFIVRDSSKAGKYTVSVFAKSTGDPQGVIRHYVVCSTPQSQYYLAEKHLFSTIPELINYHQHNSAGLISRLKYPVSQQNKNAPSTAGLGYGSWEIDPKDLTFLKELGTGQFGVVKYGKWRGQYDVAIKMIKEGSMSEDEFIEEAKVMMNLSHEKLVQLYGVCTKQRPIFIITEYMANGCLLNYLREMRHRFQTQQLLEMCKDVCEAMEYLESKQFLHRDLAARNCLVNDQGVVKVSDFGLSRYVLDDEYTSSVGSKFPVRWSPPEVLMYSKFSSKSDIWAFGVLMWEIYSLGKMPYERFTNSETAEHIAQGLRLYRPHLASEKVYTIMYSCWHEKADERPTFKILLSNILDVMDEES

pIC50 (BTK): 8.71
pEC50 [1]: 6.82
pIC50 ([2]; ELISA (FIG. 7B), read-out: IC50 for inhibition of IL-6): 6.46
pIC50 ([2]; supernatants after 18 hrs, ELISA, read-out: IC50, inhibition of IL-6 expression): 6.46
pIC50 ([3]; ELISA (FIG. 7A), read-out: IC50 for inhibition of TNFα): 5.97
pIC50 ([3]; supernatants after 4 hrs, ELISA, read-out: IC50, inhibition of TNFα expression): 5.96
Structure (SMILES): Nc1ncnc(N2CC[C@H](O)[C@@H](N3CCC[C@@H](Nc4cc(Cl)cc(C(F)(F)F)c4)C3=O)C2)c1F [Compound I]
pIC50 [4]: 5.03
ED50 [5]: 4.08 mg/kg
pIC50 (Human CD19+ B cells): 6.59

Reference: patent US9353087B2, “Inhibitors of Bruton's tyrosine kinase” (Biogen Idec MA Inc., priority 2012, dated 2016)
